This is an account of results in patent US11536729B2, “Method of identifying novel protein aggregation inhibitors based on chemical kinetics” (Cambridge Enterprise Limited, priority 2016, dated 2022).

The test system of experiment [1] is SH-SY5Y human neuroblastoma cells. Type of experiment: cell-based. The note with it: 0.5 μM Aβ42, 10 μM bexarotene. The method, then:
Aβ42 oligomers are known to be toxic to cells leading to apoptosis and to cellular death. […] SH-SY5Y human neuroblastoma cells were cultured under standard conditions, at 37° C. in a humidified incubator with 5% CO2. Cells were seeded at a density of 25,000 per well in a white-walled, clear-bottomed 96-well plate and cultured for 24 h in MEM/F12(1:1)/10% Fetal Bovine Serum (FBS) (Gibco). The culture medium was then replaced with pre-warmed phenol red free DMEM without FBS into which the peptide samples or NaPO4 buffer were diluted 1:1. […] The aggregation reaction was set up as above except for the buffer from which NaN3 was removed due to its toxicity. […] All the specified time points correspond to Aβ42 in the lag phase in order to monitor inhibition at the early stage of the aggregation. […] The cells were cultured in the presence of the peptides, buffer and media for further 24 h before the cytotoxic effect was measured.
Cell medium diluted with the same buffer that was used in these experiments was included in some wells in order to evaluate the intrinsic fluorescence of the media and bexarotene.
For the positive control, staurosporine (1 μM) was added to the cells for 2 hours. Caspase-3/7 activity was measured using the Apo-ONE Homogeneous Caspase-3/7 assay (Promega). The fluorogenic caspase-3/7 substrate, rhodamine 110 bis-(N-CBZ-L-aspartyl-L-glutamyl-L-valyl-aspartic acid amide) was diluted 1:100 in the lysis buffer provided and added to the cell medium at a 1:1 ratio. The fluorescence was measured at excitation 480 nm/emission 520 nm in an Optima FluoStar plate reader. In each of the used plates, the toxicity was assessed according to a negative and a positive control.
For comparative purposes between different plates, we normalized the fluorescence values using a parabolic equation (y=ax^b), which corresponds to the evolution of the oligomers as a function of time. Negative and positive controls were set to 1 and 10, respectively. […] Statistical analyses were performed using GraphPad prism 6.0. Results are expressed as mean±SEM.

The target in another experiment is T1, Aβ42 fibrils (Homo sapiens, UniProt P05067).
T1 construct: The recombinant Aβ (M1-42) peptide; made in house; host or cells: E. coli BL21 Gold (DE3)
T1 sequence (P05067 672-713 limits assumed): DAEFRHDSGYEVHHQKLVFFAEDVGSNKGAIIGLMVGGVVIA
In words: Dot blot assay with fibril-specific OC antibody (label-free fibril formation). The format is biochemical. The note with it: 2 μM Aβ42, 4-fold excess. The method, then: Blotting was performed using either Aβ42 fibril-specific antibody (OC, Millipore) or Aβ42 sequence-specific antibody (W0-2, Millipore). […] Aβ42 aliquots were spotted onto a nitrocellulose membrane (0.2 μm, Whatman) and then the membranes were dried and then blocked with Blocking One (Nacalai tesque) before immuno-detection. OC and W0-2 were used according to the manufacturers instructions. Alexa Fluor® 488-conjugated secondary antibodies (Life technologies) were subsequently added and fluorescence detection was performed using Typhoon Trio Imager (GE Healthcare). […] For the calibration curve (FIG. 3d), a series of dilutions between 4 μM and 0.1 μM were performed on freshly prepared Aβ42 fibrils and 4 μL aliquots were deposited onto the same nitrocellulose membrane (0.2 μm, Whatman) as the one used for OC fibril-specific antibody. […] However, under these conditions we could not detect oligomers due to their very low concentration during Aβ42 aggregation even when depositing on the membrane volumes as high as 20 μL.

In the next experiment the target is T2, Aβ42 (Homo sapiens, UniProt P05067).
T2 construct: The recombinant Aβ (M1-42) peptide; made in house; host or cells: E. coli BL21 Gold (DE3)
T2 sequence (P05067 672-713 limits assumed): as above
The experiment is described as follows: ThT Aβ42 aggregation kinetics with 1-5% pre-formed fibril seeds (surface-catalyzed secondary nucleation). The format is biochemical. The note with it: 2 μM Aβ42, 0.5- and 5-fold excess. The method, then: For the seeded experiments, preformed fibrils were prepared just prior to the experiment. Kinetic experiments were set up just as above for a […] Aβ42 samples in 20 mM sodium phosphate buffer, pH 8 with 200 μM EDTA, 0.02% NaN3 and 20 μM ThT. The ThT fluorescence was monitored for 3 hours to verify the formation of fibrils.
Samples were then collected from the wells into low-binding tubes and sonicated for 2 min in a sonicator bath at room temperature. Under the considered conditions (i.e. 4 μM Aβ42), the monomer concentration is negligible at equilibrium (31). The final concentration of fibrils, in monomer equivalents, was considered equal to the initial concentration of monomer. Fibrils were then added to freshly prepared monomer in order to reach either 5% or 10% fibrils final concentration.
Assays were initiated by placing the 96-well plate at 37° C. under quiescent conditions in a plate reader (Fluostar Omega, Fluostar Optima or Fluostar Galaxy, BMGLabtech, Offenburg, Germany). The ThT fluorescence was measured through the bottom of the plate with a 440 nm excitation filter and a 480 nm emission filter. The ThT fluorescence was followed for three repeats of each sample. […]
For the seeded experiments, preformed fibrils were prepared just prior to the experiment. […] The ThT fluorescence was monitored for 3 hours to verify the formation of fibrils. […]

Read-outs that look alike come from different tables or passages of the source.

With `C=C(c1ccc(C(=O)O)cc1)c1cc2c(cc1C)C(C)(C)CCC2(C)C` [bexarotene], the “incubation time after which detectable toxic Aβ42 species are formed in presence of compound” value in experiment [1] (37° C.) is 7 h. In addition, the “toxicity (caspase-3) of Aβ42 species in absence of bexarotene, higher than in its presence” value in experiment [1] (aliquot after 0.3 h incubation) and in experiment [1] (aliquot after 4 h incubation) was 65±5% throughout. Also, the “level of toxicity generated in the presence of bexarotene” value in experiment [1] (aliquot after 7 h incubation) is recorded as “increased to a value similar to that observed in its absence”. The “delay in the time required for half-completion of the aggregation process” value on Aβ42 fibrils turned out to be 2 h. In addition, the “effect on aggregation kinetics with 5% pre-formed fibril seeds” value on Aβ42 is listed as “concentration-dependent bexarotene-induced delay”.
